Target: T1, Recombinant human cathepsin S (CatS) (Homo sapiens, UniProt P25774)
T1 construct: made in house
Test: Recombinant human cathepsin S (CatS) fluorogenic substrate inhibition assay
Format: biochemical
Details: not given
Protocol: Recombinant human cathepsin S (CatS) was expressed in the baculovirus system and purified in one step with a thiopropyl-sepharose column. […] The assay is run in 150 mM sodium acetate pH 5.0 containing 1.5 mM DTT and 150 mM NaCl. […] Measurements are taken every min for 20 min. The rate is calculated from the slope of the increase in fluorescence and the percent inhibition is calculated from this.

T1 sequence (P25774 115-331): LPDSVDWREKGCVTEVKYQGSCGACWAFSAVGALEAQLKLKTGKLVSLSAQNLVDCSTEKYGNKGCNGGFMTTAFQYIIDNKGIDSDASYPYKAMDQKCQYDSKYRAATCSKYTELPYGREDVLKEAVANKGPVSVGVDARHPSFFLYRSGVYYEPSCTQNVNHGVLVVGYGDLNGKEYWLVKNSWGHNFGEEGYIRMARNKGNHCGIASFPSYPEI

Row | Structure (SMILES) | IC50 [nM]
1 | CS(=O)(=O)N1CCc2c(c(-c3ccc(Cl)c(CNC(=O)c4ccc(F)cc4)c3)nn2CC(O)CN2CCC(C(F)(F)F)CC2)C1 (stereo not drawn) [Example 15, N-(2-Chloro-5-{1-[2-hydroxy-3-(4-trifluoromethyl-piperidin-1-yl)-propyl]-5-methanesulfonyl-4,5,6,7-tetrahydro-1H-pyrazolo[4,3-c]pyridin-3-yl}-benzyl)-4-fluoro-benzamide] | 70
2 | CS(=O)(=O)N1CCc2c(c(-c3ccc(C(F)(F)F)c(CNC(=O)c4ccc(F)cc4)c3)nn2CC(O)CN2CCC(C(N)=O)CC2)C1 (stereo not drawn) [Example 18, 1-[3-(3-[3-[(4-Fluoro-benzoylamino)-methyl]-4-trifluoromethyl-phenyl]-5-methanesulfonyl-4,5,6,7-tetrahydro-pyrazolo[4,3-c]pyridin-1-yl)-2-hydroxy-propyl]-piperidine-4-carboxylic acid amide] | 70
3 | CS(=O)(=O)N1CCc2c(c(-c3ccc(C(F)(F)F)c(CNC(=O)Oc4ccc(F)cc4)c3)nn2CC(O)CN2CCCC2)C1 (stereo not drawn) [Example 213, {5-[1-(2-Hydroxy-3-pyrrolidin-1-yl-propyl)-5-methanesulfonyl-4,5,6,7-tetrahydro-1H-pyrazolo[4,3-c]pyridin-3-yl]-2-trifluoromethyl-benzyl}-carbamic acid 4-fluoro-phenyl ester] | 560
4 | CN1CCN(CC(O)Cn2nc(-c3ccc(C(F)(F)F)c(CNC(=O)c4ccc(F)cc4)c3)c3c2CCN(S(C)(=O)=O)C3)CC1 (stereo not drawn) [Example 227, 4-Fluoro-N-(5-{1-[2-hydroxy-3-(4-methyl-piperazin-1-yl)-propyl]-5-methanesulfonyl-4,5,6,7-tetrahydro-1H-pyrazolo[4,3-c]pyridin-3-yl}-2-trifluoromethyl-benzyl)-benzamide] | 760

Same assay, conditions: average of results obtained; substrate Z-Valine-Valine-Arginine-AMC 10 μM, pH 5.0; read-out: CatS IC50

Row | Structure (SMILES) | IC50 [nM]
5 | CS(=O)(=O)N1CCc2c(c(-c3ccc(C(F)(F)F)c(CNC(=O)c4ccc(F)cc4F)c3)nn2CC(O)CN2CCCC2)C1 (stereo not drawn) [Example 101, 2,4-Difluoro-N-{5-[1-(2-hydroxy-3-pyrrolidin-1-yl-propyl)-5-methanesulfonyl-4,5,6,7-tetrahydro-1H-pyrazolo[4,3-c]pyridin-3-yl]-2-trifluoromethyl-benzyl}-benzamide] | 440
6 | CC(C)=CC(=O)NCc1cc(-c2nn(CC(O)CN3CCC(N(C)C)C3)c3c2CN(S(C)(=O)=O)CC3)ccc1C(F)(F)F (stereo not drawn) [Example 33, 3-Methyl-but-2-enoic acid 5-{1-[3-(3-dimethylamino-pyrrolidin-1-yl)-2-hydroxy-propyl]-5-methanesulfonyl-4,5,6,7-tetrahydro-1H-pyrazolo[4,3-c]pyridin-3-yl}-2-trifluoromethyl-benzylamide] | 460
7 | CS(=O)(=O)N1CCc2c(c(-c3ccc(Cl)c(CCC(=O)Nc4ccc(F)cc4)c3)nn2CCCN2CCOCC2)C1 [Example 293, 3-{2-Chloro-5-[5-methanesulfonyl-1-(3-morpholin-4-yl-propyl)-4,5,6,7-tetrahydro-1H-pyrazolo[4,3-c]pyridin-3-yl]-phenyl}-N-(4-fluoro-phenyl)-propionamide] | 3000
8 | CS(=O)(=O)N1CCc2c(c(-c3ccc(Cl)c(CNC(=O)c4cc5ccccc5s4)c3)nn2CCCN2CCCC2)C1 [Example 164, Benzo[b]thiophene-2-carboxylic acid 2-chloro-5-[5-methanesulfonyl-1-(3-pyrrolidin-1-yl-propyl)-4,5,6,7-tetrahydro-1H-pyrazolo[4,3-c]pyridin-3-yl]-benzylamide] | 410
9 | CS(=O)(=O)N1CCc2c(c(-c3ccc(C(F)(F)F)c(CNC(=O)c4cccc(O)c4)c3)nn2CC(O)CN2CCCC2)C1 (stereo not drawn) [Example 58, 3-Hydroxy-N-{5-[1-(2-hydroxy-3-pyrrolidin-1-yl-propyl)-5-methanesulfonyl-4,5,6,7-tetrahydro-1H-pyrazolo[4,3-c]pyridin-3-yl]-2-trifluoromethyl-benzyl}-benzamide] | 420
10 | CS(=O)(=O)N1CCc2c(c(-c3ccc(Cl)c(COC(=O)c4ccccc4)c3)nn2CCCN2CCCC2)C1 [Example 70, Benzoic acid 2-chloro-5-[5-methanesulfonyl-1-(3-pyrrolidin-1-yl-propyl)-4,5,6,7-tetrahydro-1H-pyrazolo[4,3-c]pyridin-3-yl]-benzyl ester] | 1850
11 | CS(=O)(=O)N1CCc2c(c(-c3ccc(Cl)c(CNC(=O)c4ccccc4)c3)nn2CC(O)CN2CCCCC2)C1 (stereo not drawn) [Example 231, N-{2-Chloro-5-[1-(2-hydroxy-3-piperidin-1-yl-propyl)-5-methanesulfonyl-4,5,6,7-tetrahydro-1H-pyrazolo[4,3-c]pyridin-3-yl]-benzyl}-benzamide] | 800
12 | CS(=O)(=O)NCc1cc(-c2nn(CC(O)CN3CCCC3)c3c2CN(S(C)(=O)=O)CC3)ccc1C(F)(F)F (stereo not drawn) [Example 195, N-{5-[1-(2-Hydroxy-3-pyrrolidin-1-yl-propyl)-5-methanesulfonyl-4,5,6,7-tetrahydro-1H-pyrazolo[4,3-c]pyridin-3-yl]-2-trifluoromethyl-benzyl}-methanesulfonamide] | 6500
13 | CS(=O)(=O)N1CCc2c(c(-c3ccc(Cl)c(CCC(=O)Nc4ccccc4)c3)nn2CCCN2CCOCC2)C1 [Example 292, 3-{2-Chloro-5-[5-methanesulfonyl-1-(3-morpholin-4-yl-propyl)-4,5,6,7-tetrahydro-1H-pyrazolo[4,3-c]pyridin-3-yl]-phenyl}-N-phenyl-propionamide] | 2550

Now from value to compound:

Row | IC50 [nM] | Structure (SMILES)
14 | 130 | CS(=O)(=O)N1CCc2c(c(-c3ccc(C(F)(F)F)c(CNC(=O)c4ccccc4)c3)nn2CC(O)CN2CCC3(CCNC3=O)CC2)C1 (stereo not drawn) [Example 145, N-(5-{1-[2-Hydroxy-3-(1-oxo-2,8-diaza-spiro[4.5]dec-8-yl)-propyl]-5-methanesulfonyl-4,5,6,7-tetrahydro-1H-pyrazolo[4,3-c]pyridin-3-yl}-2-trifluoromethyl-benzyl)-benzamide]
15 | 240 | Cc1cc(C(=O)NCc2cc(-c3nn(CC(O)CN4CCCC4)c4c3CN(S(C)(=O)=O)CC4)ccc2C(F)(F)F)ccc1F (stereo not drawn) [Example 96, 4-Fluoro-N-{5-[1-(2-hydroxy-3-pyrrolidin-1-yl-propyl)-5-methanesulfonyl-4,5,6,7-tetrahydro-1H-pyrazolo[4,3-c]pyridin-3-yl]-2-trifluoromethyl-benzyl}-3-methyl-benzamide]
16 | 240 | CS(=O)(=O)N1CCc2c(c(-c3ccc(C(F)(F)F)c(CNC(=O)c4ccc(F)cc4)c3)nn2CC(O)CN2CCC[C@H]2C(N)=O)C1 (stereo partly drawn) [Example 97, (S)-1-[3-(3-{3-[(4-Fluoro-benzoylamino)-methyl]-4-trifluoromethyl-phenyl}-5-methanesulfonyl-4,5,6,7-tetrahydro-pyrazolo[4,3-c]pyridin-1-yl)-2-hydroxy-propyl]-pyrrolidine-2-carboxylic acid amide]
17 | 370 | CS(=O)(=O)N1CCc2c(c(-c3ccc(C(F)(F)F)c(CNC(=O)c4ccccc4F)c3)nn2CC(O)CN2CCCC2)C1 (stereo not drawn) [Example 161, 2-Fluoro-N-{5-[1-(2-hydroxy-3-pyrrolidin-1-yl-propyl)-5-methanesulfonyl-4,5,6,7-tetrahydro-1H-pyrazolo[4,3-c]pyridin-3-yl]-2-trifluoromethyl-benzyl}-benzamide]
18 | 30 | CC(C)(C)OC(=O)NC1CCN(CC(O)Cn2nc(-c3ccc(C(F)(F)F)c(CNC(=O)c4ccc(F)cc4)c3)c3c2CCN(S(C)(=O)=O)C3)CC1 (stereo not drawn) [Example 102]
19 | 150 | CN(C)C1CCN(CCCn2nc(-c3ccc(C(F)(F)F)c(CNC(=O)c4ccc(F)cc4)c3)c3c2CCN(S(C)(=O)=O)C3)C1 (stereo not drawn) [Example 5, N-(5-{1-[3-(3-Dimethylamino-pyrrolidin-1-yl)-propyl]-5-methanesulfonyl-4,5,6,7-tetrahydro-1H-pyrazolo[4,3-c]pyridin-3-yl}-2-trifluoromethyl-benzyl)-4-fluoro-benzamide]
20 | 160 | CS(=O)(=O)N1CCc2c(c(-c3ccc(C(F)(F)F)c(CNC(=O)c4ccc(F)cc4)c3)nn2CC(O)CN2CCCC2)C1 (stereo not drawn) [Example 57, 4-Fluoro-N-{5-[1-(2-hydroxy-3-pyrrolidin-1-yl-propyl)-5-methanesulfonyl-4,5,6,7-tetrahydro-1H-pyrazolo[4,3-c]pyridin-3-yl]-2-trifluoromethyl-benzyl}-benzamide]
21 | 90 | CS(=O)(=O)N1CCc2c(c(-c3ccc(C(F)(F)F)c(CNC(=O)c4ccc(F)cc4)c3)nn2CCCN2CCC(O)C2)C1 (stereo not drawn) [Example 40, 4-Fluoro-N-(5-{1-[3-(3-hydroxy-pyrrolidin-1-yl)-propyl]-5-methanesulfonyl-4,5,6,7-tetrahydro-1H-pyrazolo[4,3-c]pyridin-3-yl}-2-trifluoromethyl-benzyl)-benzamide]
22 | 40 | CS(=O)(=O)N1CCc2c(c(-c3ccc(C(F)(F)F)c(CNC(=O)c4ccc(F)cc4)c3)nn2CCCN2CCC3(CCNC3=O)CC2)C1 [Example 41, 4-Fluoro-N-(5-{5-methanesulfonyl-1-[3-(1-oxo-2,8-diaza-spiro[4.5]dec-8-yl)-propyl]-4,5,6,7-tetrahydro-1H-pyrazolo[4,3-c]pyridin-3-yl}-2-trifluoromethyl-benzyl)-benzamide]
23 | 280 | CS(=O)(=O)N1CCc2c(c(-c3ccc(C(F)(F)F)c(CNC(=O)C4CCCCCC4)c3)nn2CCCN2CCC3(CCNC3=O)CC2)C1 [Example 158, Cycloheptanecarboxylic acid 5-{5-methanesulfonyl-1-[3-(1-oxo-2,8-diaza-spiro[4.5]dec-8-yl)-propyl]-4,5,6,7-tetrahydro-1H-pyrazolo[4,3-c]pyridin-3-yl}-2-trifluoromethyl-benzylamide]
24 | 60 | CC(C)=CC(=O)NCc1cc(-c2nn(CC(O)CN3CCC(C)(C)CC3)c3c2CN(S(C)(=O)=O)CC3)ccc1C(F)(F)F (stereo not drawn) [Example 28, 3-Methyl-but-2-enoic acid 5-{1-[3-(4,4-dimethyl-piperidin-1-yl)-2-hydroxy-propyl]-5-methanesulfonyl-4,5,6,7-tetrahydro-1H-pyrazolo[4,3-c]pyridin-3-yl}-2-trifluoromethyl-benzylamide]
